Measured values reported in patent US9809560B2, “Ligands and methods for labeling biomolecules in vivo” (Albert Einstein College of Medicine, Inc., priority 2010, dated 2017).

What was measured:
zebrafish embryos = experiment: Imaging of fucosylated glycans in zebrafish embryos microinjected with GDP-FucAl; format: in vivo; settings: among 120 embryos microinjected with nucleotide sugar analogues and treated with click reagents, through four days post click reaction
Procedure: Zebrafish embryos at the one-cell or two-cell stage were microinjected in the yolk with 1 nL of a 20 mM solution of GDP-FucAl (or GDP-fucose) and either rhodamine-dextran (5% w/v) or phenol red (0.1% w/v) in 0.2 M KCl as a tracer. The embryos were allowed to develop to 5 hpf, at which point they were manually dechorionated. The dechorionated embryos were cultured in E3 embryo medium at 28° C. for an additional 3 h before transferring to 1% agarose-coated 96-well plates containing 92 μL embryo medium using a fire-polished wide-bore Pasteur pipette. Alexa Fluor-488 azide (100 μM from a 1.75 mM stock in H2O) was added to each well, followed by BTTES-CuSO4 or BTTA-CuSO4 6:1 complex ([Cu]=50 μM from 2.5 mM stock). […] After mounting on a slide or 50 mm glass bottom dishes (Matek) in 1.5-3% methyl cellulose and E3 medium, the embryos were ready for imaging by confocal microscopy.
To image fucosylated glycans in zebrafish embryos, GDP-FucAl was synthesized chemoenzymatically and microinjected embryos at the one-cell stage with 20 pmol of GDP-FucAl (FIG. 4B). […] Robust labeling of the treated embryos was achieved within 1-3 min reaction (FIG. 4C), and only background fluorescence was detected for control embryos microinjected with GDP-fucose (FIG. 10). […]

[1] = Fluorogenic kinetic assay of CuAAC of 3-azido-7-hydroxy-coumarin and propargyl alcohol; settings: 75 μM CuSO4 premixed with ligand, [ligand]:[copper] 2:1 to 6:1; within 15 min
Procedure: FIG. 1A-1C. Copper(I)-catalyzed azide-alkyne cycloaddition (CuAAC) is accelerated by Cu(I)-stabilizing ligands. (A) CuAAC of azides and terminal alkynes to form 1,4-disubstituted 1,2,3-triazoles. (B) Structures of CuAAC-accelerating ligands. (C) Conversion-time profiles of CuAAC in the presence/absence of accelerating ligands. Reaction conditions: propargyl alcohol (50 μM), 3-azido-7-hydroxy-coumarin (100 μM), CuSO4 (75 μM), 0.1 M potassium phosphate buffer (pH 7.0)/DMSO 95:5, sodium ascorbate ([…]), rt. Error bars represent the standard deviation of three replicate experiments.
Protocol for Kinetic Measurement of CuAAC of 3-azido-7-hydroxy-coumarin and Propargyl Alcohol […]
Procedure for 200 μL reactions: In a 96-well fluorescence plate, add the reagents in the following order: (1) 40 μL of 500 mM phosphate buffer pH 7.0; (2) 1.0 μL 10 mM propargyl alcohol; (3) 10 μL of DMSO; (4) 6 μL of premixed CuSO4 and ligand ([Cu]=2.5 mM); (5) 1.0 μL 20 mM coumarin-N3; (6) 20 μL of 25 mM sodium ascorbate; (7) Read fluorescence (λex=404 nm, λem=477 nm, RFU) on the Synergy plate reader.

What does the source list for `CC(C)(C)n1cc(CN(Cc2cn(CCOS(=O)(=O)O)nn2)Cc2cn(C(C)(C)C)nn2)nn1` [BTTES]?
embryos with minor developmental defects (zebrafish embryos): less than twelve embryos exhibited minor developmental defects; cycloaddition product yield [1]: > 50%
